“Also recorded” adds a separate entry of the source. Where a SMILES comes first, the peptide text is derived from it. Where no end group is shown, it is not given here. The star is where a group is joined. X1 = CCN(CC)c1ccc2c(-c3ccc(S(=O)(=O)*)cc3S(=O)(=O)[O-])c3ccc(=[N+](CC)CC)cc-3oc2c1; rhodamine = not defined here
What was measured:
cathepsin B = cathepsin B (Homo sapiens, UniProt P07858); test: Resistance to acid proteases: cathepsin B; assay type: in vitro ADME; details: 50 pmol, 30 min, 37° C., pH 5
Method: (§1) 50 pmol aPPR, 5.2R, 5.3R, ZF5.3R, TatR (SEQ ID NO:67), or Arg8R (SEQ ID NO:68) were incubated with 5 pg cathepsin B, D, or L for 30 min at 37° C. in 10 μL of 20 mM sodium phosphate buffer (pH 5) containing 150 mM NaCl. At the end of the incubation, the reaction was stopped by adding 40 μL of a solution containing a 84:15:1 ratio of water:EtOH:TFA before analysis by HPLC.

HeLa cells [1] = test: HPLC analysis of cytosolic extracts prepared with streptolysin O; assay type: cell-based; details: HeLa cells treated with rhodamine labeled molecule
Method: To generate cytosolic extracts, HeLa cells were treated with streptolysin O (SLO), a well characterized bacterial toxin that creates pores in the plasma membranes of target cells (Walev et al., 2002, FASEB 16:237-239). […] Moreover, when the toxin is added to cultured cells at 4° C. and washed with PBS before raising the temperature to 37° C., pores are created only in the plasma membrane and the release of ER, golgi, or endolysosomal contents are avoided (Androlewicz et al., 1993, Proc Natl Acad Sci USA 90:9130-9134).
First, selective release of the cytoplasmic contents of HeLa cells using the published procedures was verified. HeLa cells were treated with 20 μg/mL SLO in PBS containing 5 mM DTT (20 min, 4° C.), washed (three PBS washes, 150 μL each), resuspended in PBS, and incubated at 37° C. for 15 min, after which 1.5 μM propidium iodide (PI), a marker of permeabilized cell membranes, was added.

cathepsin L = cathepsin L (Homo sapiens, UniProt P07711); test: Resistance to acid proteases: cathepsin L; assay type: in vitro ADME; details: 50 pmol, 30 min, 37° C., pH 5
Chain of cathepsin L (P07711 114-333, species assumed): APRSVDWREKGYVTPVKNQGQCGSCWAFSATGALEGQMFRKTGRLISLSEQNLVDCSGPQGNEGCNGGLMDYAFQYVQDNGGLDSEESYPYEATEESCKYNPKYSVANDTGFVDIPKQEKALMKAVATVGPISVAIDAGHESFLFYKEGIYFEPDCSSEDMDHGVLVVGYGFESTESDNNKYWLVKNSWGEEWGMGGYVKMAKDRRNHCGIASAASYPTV
Method: as §1

HeLa cells [2] = test: Effects of endocytosis inhibitors on cell uptake, confocal microscopy; assay type: cell-based; details: 1 μM rhodamine labeled, 30 min, 37° C.; for effect of EIPA on uptake: 50 μM EIPA; for effect of dynasore on uptake: 80 μM dynasore; for effect of MβCD on uptake: 5 mM MβCD
Method: HeLa cells grown for 24 h in glass bottom plates were incubated with HKR buffer, or HKR buffer containing 80 μM dynasore, 50 μM N-ethyl-isopropyl-amiloride, or 5 mM methyl-β-cyclodextrin for 30 min at 37° C. prior to the addition of 1 μM rhodamine-labeled miniature protein or peptide (Tat (SEQ ID NO:67) and Arg8 (SEQ ID NO:68)). The cells were washed twice with DMEM, the nuclei labeled with Hoescht, and images acquired as described above for colocalization experiments.

cathepsin D = cathepsin D (Homo sapiens, UniProt P07339); test: Resistance to acid proteases: cathepsin D; assay type: in vitro ADME; details: 50 pmol, 30 min, 37° C., pH 5
Chain of cathepsin D (P07339 65-412, species assumed): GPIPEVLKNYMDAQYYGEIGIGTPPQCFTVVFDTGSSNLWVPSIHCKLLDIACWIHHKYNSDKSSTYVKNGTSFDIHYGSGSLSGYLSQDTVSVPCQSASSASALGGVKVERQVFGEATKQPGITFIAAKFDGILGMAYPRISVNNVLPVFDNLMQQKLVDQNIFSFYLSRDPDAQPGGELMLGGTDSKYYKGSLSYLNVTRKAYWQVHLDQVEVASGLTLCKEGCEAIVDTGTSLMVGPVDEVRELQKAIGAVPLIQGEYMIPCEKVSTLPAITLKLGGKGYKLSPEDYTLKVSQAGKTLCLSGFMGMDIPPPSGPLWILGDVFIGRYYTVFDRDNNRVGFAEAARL
Method: as §1

HeLa cells [3] = test: Peptide degradation in HeLa cells, HPLC of whole cell lysates; assay type: in vitro ADME; details: 1 μM, 30 min, RIPA lysate
Method: Approximately 200,000 HeLa cells were treated with rhodamine labeled cationic miniature proteins and peptides as described for experiments using flow cytometry to measure peptide uptake. These cells were pelleted in 96 well microtitre plates (300 g, 3 min) and lysed in 40 μL RIPA buffer (150 mM NaCl, 50 mM Tris pH 7.4, 50 mM EDTA pH 7.4, 0.1% SDS, 1% Triton X-100) on ice for 30 min. The insoluble material was cleared from the cell lysate via centrifugation (10,000 g, 10 min) and 20 μL of the supernatant was diluted into 400 μL of 15% CH3CN in water. These samples were analyzed via reverse phase HPLC (Shimadzu Instruments) fitted with a fluorescence detector and a C18 column (Poroshell 120 SB-C18, 2.7 μm, 100 mm×3 mm ID, Agilent).

HeLa cells [4] = test: Colocalization with Alexa-488-transferrin (Tf488), live cell confocal microscopy; assay type: cell-based; details: 1 μM, 30 min
Method: To examine the colocalization of rhodamine labeled miniature proteins or peptides with Alexa-488-transferrin (Tf488), HeLa cells were plated (200 μl, 10^4 cells/well, 96 well glass bottom plates, Matrical) the day prior to experiments. The media was replaced with 150 μL Hepes-Krebs-Ringer's (HKR) buffer (140 mM NaCl, 2 mM KCl, 1 mM CaCl2, 1 mM MgCl2, 10 mM Hepes pH 7.4) containing 1 μM miniature protein or 25 nM Alexa-488-transferrin (Molecular Probes) and the cells incubated at 37° C. for 30 min. The cells were then rinsed twice with 200 μL, HKR buffer and nuclei were labeled by overlaying 200 μL HKR containing 300 nM Hoechst 33342 (Molecular Probes Cat. # H3570) for 5 minutes. Images of cells were acquired using a PerkinElmer LiveView spinning disk confocal microscope fitted with a 60×1.2 NA objective. Colocalization with Rab-GFP fusions was examined in an analogous way using HeLa cells transfected with the appropriate expression plasmid.
Colocalization between rhodamine and fluorescein labeled miniature proteins and peptides, or between rhodamine labeled miniature proteins and markers of endocytosis was completed using confocal microscopy. Live cell confocal microscopy was conducted using a PerkinElmer LiveView spinning disk confocal microscope fitted with heated microscope enclosure (maintained at 37° C.), a 60×1.2 NA objective, laser illumination, a Nipkow CSU-1× spinning disk, and a Hammamatsu CS9100 EMCCD camera operated using Velocity software. Alexafluor-488-transferrin was detected using a 488 nm laser and a 520 nm long pass filter; tetraethylrhodamine and Alexafluor-546-transferrin were detected using a 546 nm laser line and a 580 nm long pass filter, Hoescht 33342 was detected using a 405 nm laser line and a 450 nm long pass filter. Images were processed for presentation by using the ‘subtract background’ option and linear contrast adjustments in Image J. All adjustments were applied uniformly to the entire image. Colocalization analysis was performed using the JACOP plugin (Bolte and Cordelières, 2006), available on the ImageJ website. The fraction of rhodamine signal overlapping with EGFP signal (R E G) was calculated using Mander's coefficient and automatic thresholding. Pearson's correlation coefficient (R) was also obtained using the JACOP plugin.

[5] = Circular dichroism thermal melt; assay type: physicochemical; details: unlabeled, 25 μM in PBS
Method: FIG. 8, comprising FIGS. 8A-8C, depicts the results of circular dichroism (CD) analysis of miniature proteins studied herein. (FIG. 8A) Wavelength dependent CD spectra of miniature proteins at 25 μM concentration in PBS at 37° C. (FIG. 8B) Temperature dependent ellipticity at 222 nm of miniature proteins at 25 μM.
CD spectra of unlabeled aPP-based miniature were recorded from samples containing 25 μM peptide in PBS as described (Luedtke et al., 2007, Nat Chem Biol. 3:779-784). CD spectra of ZF and ZF5.3 in the presence and absence of Zn2+ were recorded from solutions of peptide (12.5-25 μM) dissolved in 10 mM argon-purged Tris-HCL (pH 8.0) in the presence or absence of 0.5 mM dithiothreitol and 2 eq. ZnC12. Samples were incubated for 30 min at RT and analyzed on a Jasco J-810-150S spectropolarimeter. Final plots show background-normalized averages of six scans.

GR★-GFP = test: GIGT, transient transfection with GR★-GFP; assay type: cell-based; details: 500 nM, 30 min, HeLa cells
Method: Cells were plated (10,000 cells/well) onto 96-well glass bottom plates (Matrical Bioscience, #MGB096-1-2-LG-L) in full DMEM (HeLa) or full McCoy's 5A (U205) media and allowed to adhere overnight. […] Cells were allowed to transfect for 6 h at 37° C. under 5% CO2 before removing transfection media and replenishing growth media. Image analysis of GIGT using Cell Profiler. Cell image files were loaded into a customizable CellProfiler7 ‘pipeline’ as individual GFP (green) and Hoechst (blue) channels, and converted to grayscale. Nuclei were identified and segmented from the gray Hoechst channel based on Otsu three-class thresholding, with pixels in the middle intensity class assigned to background. Clumped objects were individually distinguished using ‘Laplacian of Gaussian’ modeling and separated by ‘shape’. […] The ratio of mean intensities of the nuclear region divided by the cytosolic region of the GFP image was measured for every cell examined, and 40-80 transfected cells from 15-25 images were acquired for each treatment.
Cells were allowed to incubate in the presence of ligand for 30 min at 37° C. under 5% CO2. […] Fluorescence illumination was initiated using an EXFO X-cite Series 120 Hg arc lamp. […] Fluorescence intensities of individual cells were quantified using the image analysis algorithm CellProfiler.

[6] = system: HeLa cervical cancer cells; test: Internal peptide concentration after co-administration with ZF 5.3; assay type: cell-based
Method: HeLa cervical cancer cells were incubated in the presence of either 500 nM ZF 4.3-Rhodamine or 500 nM ZF 4.3-Rhodamine with 1 μM ZF 5.3 for 30 minutes. After incubation, external peptide was removed and internal peptide concentration was measured using a microscope with advanced correlation and detection hardware. In the absence of ZF 5.3, only a small amount of ZF 4.3 enters the cell interior, corresponding to ˜8% of the ZF 4.3 concentration added (FIG. 19). In the presence of ZF 5.3, the amount of ZF 4.3 that enters the cell interior quadrupled, raising to ˜35% of the concentration added (FIG. 19).

[7] = Trafficking of a biologically active peptide (NBD) into the cytosol; assay type: cell-based; details: 500 nM NBD fusions
Method: Cells were incubated in the presence of either 500 nM ZF 5.3-NBD or Antp-NBD or Arg8-NBD (FIG. 20). After incubation, internal peptide concentration was measured.

Compound: CC[C@H](C)[C@H](NC(=O)[C@H](CC(C)C)NC(=O)[C@H](CC(=O)O)NC(=O)[C@H](CCCNC(=N)N)NC(=O)[C@@H](NC(=O)[C@@H]1CCCN1C(=O)[C@H](C)NC(=O)[C@H](CC(=O)O)NC(=O)[C@H](CC(=O)O)NC(=O)CNC(=O)[C@@H]1CCCN1C(=O)[C@H](Cc1ccc(O)cc1)NC(=O)[C@@H](NC(=O)[C@@H]1CCCN1C(=O)[C@H](CCC(N)=O)NC(=O)[C@H](CO)NC(=O)[C@@H]1CCCN1C(=O)CNC(=O)[C@@H](N)CCCCNS(=O)(=O)c1ccc(-c2c3ccc(=[N+](CC)CC)cc-3oc3cc(N(CC)CC)ccc23)c(S(=O)(=O)[O-])c1)[C@@H](C)O)C(C)C)C(=O)N[C@@H](CCCNC(=N)N)C(=O)N[C@@H](Cc1ccccc1)C(=O)N[C@@H](Cc1ccc(O)cc1)C(=O)N[C@@H](CCCNC(=N)N)C(=O)N[C@@H](CC(=O)O)C(=O)N[C@@H](CC(C)C)C(=O)N[C@@H](CCCNC(=N)N)C(=O)N[C@@H](CCCNC(=N)N)C(=O)N[C@@H](Cc1ccc(O)cc1)C(=O)N[C@@H](CC(C)C)C(=O)N[C@@H](CC(N)=O)C(=O)N[C@H](C(=O)N[C@H](C(=O)N[C@H](C(=O)N[C@@H](CCCNC(=N)N)C(=O)N[C@@H](Cc1c[nH]cn1)C(=O)N[C@@H](CCCNC(=N)N)C(=O)N[C@@H](Cc1ccc(O)cc1)C(N)=O)[C@@H](C)O)C(C)C)C(C)C [5.3R] (H-K(X1)GPSQPTYPGDDAPVRDLIRFYRDLRRYLNVVTRHRY-NH2)
- degradation by cathepsin B (HPLC) (cathepsin B): several additional small peaks
- material found in SLO cytoplasmic extracts (HPLC) (HeLa cells [1]): presence of intact 5.3R; also recorded: a single peak with the same retention time as the starting material
- degradation by cathepsin L (HPLC) (cathepsin L): traces identical to the parent peptide; also recorded: to a smaller extent
- effect of EIPA on uptake (HeLa cells [2]): dramatically reduced the uptake
- effect of dynasore on uptake (HeLa cells [2]): completely blocked the uptake
- effect of MβCD on uptake (HeLa cells [2]): completely blocked the uptake
- degradation by cathepsin D (HPLC) (cathepsin D): cleaved by cathepsin D
- metabolised at 0.5 h (cathepsin D; isolated enzyme cathepsin other, read-out: disappearance after incubation with cathepsin D): ~50%
- degradation during incubation with HeLa cells (HPLC of whole cell lysates) (HeLa cells [3]): minimal to no cleavage; also recorded: virtually identical to control samples
- intracellular red fluorescent signal (HeLa cells [4]): red fluorescent puncta throughout the cytosol

Compound: GPSQPTYPGDDAPVRDLRRFYRDLRRYLNVVTRHRYC^acetyl-NH2 (GPSQPTYPGDDAPVRDLRRFYRDLRRYLNVVTRHRYC(Ac)-NH2) [6.3]
- Tm (temperature dependent ellipticity at 222 nm) [5]: 33 °C

Compound: K^DexGPSQPTYPGDDAPVRDLIRPYRDLQRPLRVVTRHRY (K(dexamethasone)GPSQPTYPGDDAPVRDLIRPYRDLQRPLRVVTRHRY-NH2) [5.2-P2Dex]
- translocation ratio (TR), GR★-GFP (GR★-GFP): 1.35±0.11

Compound: K^DexGPSQPTYPGDDAPVRDLIRPYRDLRRPLNVVTRHRY (K(dexamethasone)GPSQPTYPGDDAPVRDLIRPYRDLRRPLNVVTRHRY-NH2) [5.3-P2Dex]
- translocation ratio (TR), GR★-GFP (GR★-GFP): 1.64±0.27

Compound: K^RhodGRKKRRQRRRPPQY-NH2 (K(rhodamine)GRKKRRQRRRPPQY-NH2; reading uncertain; also: printed as K^RhodGRKKRRQRRRPPQY-NH2) [TatR]
- degradation by cathepsin B (HPLC) (cathepsin B): little or no degradation
- material found in SLO cytoplasmic extracts (HPLC) (HeLa cells [1]): retention times distinct from the starting material; also recorded: little or no material with the same retention time as the starting material
- degradation by cathepsin L (HPLC) (cathepsin L): little or no degradation
- effect of EIPA on uptake (HeLa cells [2]): dramatically reduced the uptake
- effect of dynasore on uptake (HeLa cells [2]): completely blocked the uptake
- effect of MβCD on uptake (HeLa cells [2]): completely blocked the uptake
- degradation by cathepsin D (HPLC) (cathepsin D): little or no degradation
- degradation during incubation with HeLa cells (HPLC of whole cell lysates) (HeLa cells [3]): numerous additional peaks
- intracellular red fluorescent signal (HeLa cells [4]): red fluorescent puncta throughout the cytosol

Compound: RRRRRRRR [Arg8]
- intracellular concentration on co-incubation with ZF 5.3 [6]: did not significantly increase

Compound: WYSCNVCGKAFVLSRHLNRHLRVHRRAT [ZF5.3]
- trafficking a biologically active peptide into the cytosol [7]: superior to both Antp and Arg8

Source: patent publication US11155580B2, “Modified proteins and methods of use thereof” (YALE UNIVERSITY, priority 2013, dated 2021)
